Laboratory results taken from patent US12453776B2, “Lipids and compositions for the delivery of therapeutics” (ARBUTUS BIOPHARMA CORPORATION, priority 2008, dated 2025).

Test system: Factor VII
Experiment: In vivo FVII knockdown by FVII siRNA lipid formulations (chromogenic Factor VII assay, serum 24 h after i.v. dosing)
Details: female C57Bl/6 mice, i.v. tail vein, cationic lipid/DSPC/cholesterol/PEG-lipid 40/10/40/10 with FVII siRNA, no unit at the values, method gives ED50 in mg/kg
Method: Cationic lipid containing particles were made using the preformed vesicle method. Cationic lipid, DSPC, cholesterol and PEG-lipid were solubilised in ethanol at a molar ratio of 40/10/40/10, respectively. The lipid mixture was added to an aqueous buffer (50 mM citrate, pH 4) with mixing to a final ethanol and lipid concentration of 30% (vol/vol) and 6.1 mg/mL respectively and allowed to equilibrate at room temperature for 2 min before extrusion. The hydrated lipids were extruded through two stacked 80 nm pore-sized filters (Nuclepore) at 22° C. using a Lipex Extruder (Northern Lipids, Vancouver, BC) until a vesicle diameter of 70-90 nm, as determined by Nicomp analysis, was obtained. This generally required 1-3 passes.
The FVII siRNA (solubilised in a 50 mM citrate, pH 4 aqueous solution containing 30% ethanol) was added to the vesicles, pre-equilibrated to 35° C., at a rate of ˜5 mL/min with mixing. […] The final encapsulated siRNA-to-lipid ratio was determined after removal of unencapsulated siRNA using size-exclusion spin columns or ion exchange spin columns.
Test formulations were initially assessed for their FVII knockdown in female 7-9 week old, 15-25 g, female C57Bl/6 mice at 0.1, 0.3, 1.0 and 5.0 mg/kg with 3 mice per treatment group. […] Mice were weighed and the appropriate dosing volumes calculated (10 μl/g body weight). […]

| SMILES | ED50 (dose resulting in a 50% reduction in plasma FVII levels compared to control animals) [mg/kg] |
| --- | --- |
| CCCCC/C=C\C/C=C\CCCCCCCCC(CCCCCCCC/C=C\C/C=C\CCCCC)OC(=O)CCCN(C(C)C)C(C)C [DLin-M-C3-DIPA] | 4.5 |
| CCCCC/C=C\C/C=C\CCCCCCCCC(CCCCCCCC/C=C\C/C=C\CCCCC)OC(=O)CCCN(CC)CC [DLin-M-C3-DEA] | 0.3 |
